Measured values published in US20120053196A1, “Combination Treatment of Breast Cancer” (priority 2009, published 2012).

What was measured:
ERα+/PR− tumors = conditions: follow-up period of 6 years, postmenopausal women; cited from earlier work
HMGCR mRNA = test: qRT-PCR of HMGCR mRNA levels in MCF7 cells after Simvastatin/Tamoxifen treatment; assay type: cell-based; conditions: five days, 10 μM Simvastatin or 100 nM Tamoxifen, FIG. 15
Method: Total RNA was isolated using the mirVANA™ miRNA Isolation Kit (Ambion) and reverse transcribed using SuperScript II™ Reverse Transcriptase (Invitrogen) according to the manufacturer's instructions. […] Relative HMG-CoAR expression levels in breast cancer cell lines were calculated using the qBase real-time PCR relative quantification software with all samples normalized to 18s rRNA. Negative controls included a no template control and a no reverse transcriptase control. All qRT-PCR reactions were performed in triplicate.

HMGCR = conditions: MCF7 cells, five days, 10 μM Simvastatin, 100 nM Tamoxifen, or a combination of both, FIG. 14
ERα = conditions: MCF7 cells, five days, 10 μM Simvastatin, 100 nM Tamoxifen, or a combination of both, FIG. 14
breast cancer = conditions: 5 years tamoxifen compared to no adjuvant treatment; cited from earlier work
[1] = system: stage II invasive breast cancer; test: Randomized premenopausal cohort: two years of adjuvant tamoxifen vs control, recurrence free survival (Kaplan-Meier, log-rank) by HMGCR IHC status; assay type: in vivo, human; conditions: for outcome of HMGCR positive and ER negative patients vs HMGCR negative and ER positive patients: tamoxifen treated cohort
Text: Between 1984 and 1991, 564 pre-menopausal women with primary breast cancer in the South and Southeast regions of Sweden were enrolled in a multi-centre clinical trial and randomly assigned to either two years of adjuvant tamoxifen (n=276) or a control group (n=288). […] The inclusion criteria were pre-menopausal patients, or patients younger than 50 years, with stage II (pT2 N0 M0, pT1-2 N1 M0) invasive breast cancer treated by modified mastectomy or breast conserving surgery with axillary lymph node dissection. Post-operative radiotherapy (50 Gy) was administered after breastconserving surgery and all lymph node-positive patients received locoregional radiotherapy. […] The study design is described in detail elsewhere (Rydén L et al, Eur J Cancer, 2005, 41(2): 256-64). Ethical permission was obtained from the Local Ethics Committees at Lund and Linköping Universities.
Tissue blocks from 500 of the 564 patients could be retrieved for TMA-construction. All cases had been histopathologically re-evaluated on hematoxylin and eosin stained slides. TMA:s were constructed by sampling 2×0.6 mm cores per case from areas representative of invasive cancer, using an manual arraying device (MTA-1, Beecher Inc, WI, USA). […] IHC staining of ER and PR had been performed previously. In line with current clinical praxis, a cut-off at 10% positive nuclei was used to define hormone receptor positively.
For statistical analyses, the cytoplasmic intensity (CI) level was evaluated, in line with what is described in Examples, Section 3 above. […] Two categories were defined: “HMGCR high” corresponding to CI=weak, moderate and strong and “HMGCR low” corresponding to CI=absent This classification of samples was used for RFS analysis according to the Kaplan-Meier estimator, and the log-rank test was used to compare survival in different strata. ER and PR negativity was defined as<10% positively staining nuclei, according to current clinical guidelines in Sweden. All statistical tests were two-sided, and p-values of<0.05 were considered significant. All calculations were made with the statistical package SPSS 17.0 (SPSS Inc. Illinois, USA).

[2] = system: ERα positive breast cancer; conditions: cited from earlier work

Structure (SMILES): CC(C)(C#N)c1cc(Cn2cncn2)cc(C(C)(C)C#N)c1 [anastrozole]
- recurrence rate compared to patients treated with tamoxifen (ERα+/PR− tumors): halved

Structure (SMILES): CC/C(=C(\c1ccccc1)c1ccc(OCCN(C)C)cc1)c1ccccc1 [tamoxifen]
- HMGCR levels of mRNA after treatment (HMGCR mRNA): slight increase
- HMGCR expression (Western blot) (HMGCR): slight HMGCR expression
- ERα expression (Western blot) (ERα): no ERα expression
- reduction in breast cancer specific mortality (breast cancer): 34%
- reduction in disease recurrence (breast cancer): 41%
- effect on RFS based on the HMGCR level ([1]; ER negative tamoxifen treated subjects, FIG. 7a): positive effect on RFS
- RFS, HMGCR high category vs HMGCR low ([1]; ER positive tamoxifen treated subjects, FIG. 2a): significantly better RFS
- effect of tamoxifen treatment on RFS ([1]; HMGCR negative and ER negative subjects, FIG. 10b): no positive effect
- survival upon tamoxifen treatment vs no adjuvant endocrine treatment ([1]; HMGCR positive and ER negative subjects, FIG. 9a): improved survival
- tamoxifen impact on survival (RFS) ([1]; HMGCR positive and PR negative subjects, FIG. 12, not statistically significant): trend of tamoxifen impact on survival
- effect of tamoxifen treatment on RFS ([1]; HMGCR positive or ER positive subjects, FIG. 10a): significantly positive effect
- response to tamoxifen treatment (RFS) ([1]; PR negative and HMGCR negative subjects, FIG. 11b): no response
- response to tamoxifen treatment (RFS) ([1]; PR positive and HMGCR positive subjects, FIG. 11a): significant response
- RFS associated with HMGCR expression ([1]; lymph node positive patients who received tamoxifen, FIG. 4a): improved RFS
- survival of HMGCR positive subjects ([1]; node negative subgroups treated with tamoxifen, FIGS. 4b and 5b, too few patients for significance): trend of better survival
- outcome of HMGCR positive and ER negative patients vs HMGCR negative and ER positive patients ([1]; node positive subjects, FIG. 6a): better outcome
- recurrence free survival (RFS), HMGCR high category vs HMGCR low category ([1]; patients treated with adjuvant tamoxifen, FIG. 1a): significantly better RFS
- survival upon tamoxifen treatment vs no adjuvant endocrine treatment ([1]; patients with HMGCR high tumors, irrespective of ER status, FIG. 8a): significantly improved survival
- survival upon tamoxifen treatment vs no adjuvant endocrine treatment ([1]; patients with HMGCR low tumors, irrespective of ER status, FIG. 8b): no impact on survival
- outcome of HMGCR positive and ER negative patients vs HMGCR negative and ER positive patients ([1]; FIG. 3a): better outcome
- fraction of patients who do not respond to tamoxifen treatment [2]: 30-40%
